Key:
Format in all cases: biochemical
stromelysin = stromelysin (Homo sapiens, UniProt P08254); test: Stromelysin inhibition assay (HPLC/fluorometric determination of remaining peptide substrate); details: SLN = stromelysin; substrate 5 μM, enzyme 1.5 nM
Method: Briefly the assay may be carried out by incubating for four hours the inhibitor in dimethyl sulfoxide (DMSO) and 25 μl of 0.3726 μg/ml stromelysin, then adding 60 μl of 11.24 μM substrate and incubating the resulting mixture for 18 hours. The final concentrations of the substrate is 5 μM and of the enzyme 1.5 nM. At this time 50 μl of 0.3 M H3 PO4 is added and a portion of the mixture injected onto an HPLC column and the remaining substrate determined by fluorometric detection. The area of the substrate is quantitated and is plotted as a function of the inhibitor concentration. The Ki is calculated using the following equation: [formula] where area inhibited and ^area control are integrated HPLC areas for substrate for inhibited and uninhibited reactions, respectively; [I] is the inhibitor concentration; [S] is the substrate concentration.

gelatinase = test: Gelatinase inhibition assay with fluorogenic Dnp-peptide substrate (method of Stack et al); details: Gel = gelatinase
Source text: (§1) The capacity of representative compounds of formula I to inhibit collagenase and gelatinase lysis may be determined using the method of M. S. Stack et al, Biol. Chem 264, 4277 (1989). In such assay, a fluorogenic substrate Dnp-Pro-Leu-Gly-Leu-Trp-Ala-D-Arg.(SEQ ID NO:2) where the "Dnp" designation indicates a "dinitrophenyl" group and this group is indicated by "Xaa" in the Sequence Listing. is used. The tryptophan fluorescence is efficiently quenched by the dinitrophenyl group but when it is hydrolyzed by collagenase or gelatinase, there is increased fluorescence with cleavage occurring at the Gly-Leu bond.
(§2) Assays were performed in 0.05M Tris, 5 mM CaCl2, 0.2M NaCl up to 20% Me2 SO, pH 7.7 at either […] or 37° C. using peptide concentrations of 2.5 to 40 μM.
(§3) After addition of enzyme to initiate the reaction, the initial rate of substrate hydrolysis is determined by monitoring the increase in fluorescence emission at 346 nm. using an excitation wavelength of 280 nm. To determine the inhibitory activity the hydrolysis is measured fluorimetrically in the presence of increasing concentrations of the inhibitor and the Ki is determined.

collagenase = molecular target: T1, collagenase (Homo sapiens, UniProt P03956); test: Collagenase inhibition assay with fluorogenic Dnp-peptide substrate (method of Stack et al); details: CGase = collagenase
T1 sequence (P03956 100-469): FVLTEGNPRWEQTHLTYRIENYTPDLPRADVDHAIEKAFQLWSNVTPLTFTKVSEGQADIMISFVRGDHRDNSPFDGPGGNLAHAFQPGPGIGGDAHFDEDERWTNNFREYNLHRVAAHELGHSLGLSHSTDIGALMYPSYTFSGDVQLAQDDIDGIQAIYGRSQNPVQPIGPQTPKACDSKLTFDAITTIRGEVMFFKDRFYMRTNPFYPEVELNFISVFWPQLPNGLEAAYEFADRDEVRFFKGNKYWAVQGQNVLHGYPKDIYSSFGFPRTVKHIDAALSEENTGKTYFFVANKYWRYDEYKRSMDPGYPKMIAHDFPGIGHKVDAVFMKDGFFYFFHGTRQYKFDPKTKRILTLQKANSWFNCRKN
Source text: as §1, §2, §3

Sequence of stromelysin (P08254 100-477): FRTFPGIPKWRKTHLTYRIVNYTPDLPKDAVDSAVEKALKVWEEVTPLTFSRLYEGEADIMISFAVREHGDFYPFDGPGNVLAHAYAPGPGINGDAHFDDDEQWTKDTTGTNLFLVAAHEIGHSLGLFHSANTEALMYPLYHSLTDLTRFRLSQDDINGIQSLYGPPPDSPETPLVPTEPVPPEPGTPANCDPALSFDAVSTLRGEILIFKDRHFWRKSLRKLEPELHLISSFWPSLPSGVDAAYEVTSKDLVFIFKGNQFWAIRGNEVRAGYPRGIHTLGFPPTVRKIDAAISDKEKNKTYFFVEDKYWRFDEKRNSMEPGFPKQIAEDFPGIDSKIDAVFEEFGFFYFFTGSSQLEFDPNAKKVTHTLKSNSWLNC

Row | Ki (stromelysin) | Ki (gelatinase) | Ki (collagenase) | SMILES
1 | 0.37 µM | 0.11 µM |  | C[C@@H](N[C@@H](CCCCCCCCCN)C(=O)N[C@@H](CCCNC(=N)N)C(=O)Nc1ccccc1)C(=O)O [Compound 9d]
2 | 1.6 µM | 0.12 µM |  | CCCCCCCC[C@H](N[C@H](C)C(=O)O)C(=O)N[C@@H](CCCNC(=N)N)C(=O)Nc1ccccc1 [Compound 9c]
3 | 0.24 µM | 0.5 µM | > 10 µM | CC(C)C[C@H](NC(=O)[C@H](CCCCCCCCCN)N[C@H](C)C(=O)O)C(=O)Nc1ccccc1 [Compound 9a]
4 | 0.85 µM | 0.56 µM |  | CCCCCCCCCC[C@H](N[C@H](C)C(=O)O)C(=O)N[C@@H](CC(C)C)C(=O)Nc1ccccc1 [Compound 9e]
5 | 0.57 µM | 0.34 µM | > 10 µM | CCCCCCCC[C@H](N[C@H](C)C(=O)O)C(=O)N[C@@H](CC(C)C)C(=O)Nc1ccccc1 [Compound 9b]

Source: US6090785A, “Substituted N-carboxyalkylpeptidyl derivatives as antidegenerative agents” (Merck & Co., Inc., priority 1992, dated 2000)
